Measured values published in paper PMC7322046 (Heliyon, 2020).

Columns and labels:
[1] = test system: human dipeptidyl peptidase IV (DPP4); details: dipeptides; cited from earlier work
Human recombinant DPP4 = Human recombinant DPP4 (Homo sapiens, UniProt P27487); test: DPP4 inhibition assay; format: biochemical; details: test tripeptide 10 μg/ml; 100 μM Gly-Pro-AMC, 37 °C, 30 min, pH 8.0
Chain of Human recombinant DPP4 (P27487 whole entry): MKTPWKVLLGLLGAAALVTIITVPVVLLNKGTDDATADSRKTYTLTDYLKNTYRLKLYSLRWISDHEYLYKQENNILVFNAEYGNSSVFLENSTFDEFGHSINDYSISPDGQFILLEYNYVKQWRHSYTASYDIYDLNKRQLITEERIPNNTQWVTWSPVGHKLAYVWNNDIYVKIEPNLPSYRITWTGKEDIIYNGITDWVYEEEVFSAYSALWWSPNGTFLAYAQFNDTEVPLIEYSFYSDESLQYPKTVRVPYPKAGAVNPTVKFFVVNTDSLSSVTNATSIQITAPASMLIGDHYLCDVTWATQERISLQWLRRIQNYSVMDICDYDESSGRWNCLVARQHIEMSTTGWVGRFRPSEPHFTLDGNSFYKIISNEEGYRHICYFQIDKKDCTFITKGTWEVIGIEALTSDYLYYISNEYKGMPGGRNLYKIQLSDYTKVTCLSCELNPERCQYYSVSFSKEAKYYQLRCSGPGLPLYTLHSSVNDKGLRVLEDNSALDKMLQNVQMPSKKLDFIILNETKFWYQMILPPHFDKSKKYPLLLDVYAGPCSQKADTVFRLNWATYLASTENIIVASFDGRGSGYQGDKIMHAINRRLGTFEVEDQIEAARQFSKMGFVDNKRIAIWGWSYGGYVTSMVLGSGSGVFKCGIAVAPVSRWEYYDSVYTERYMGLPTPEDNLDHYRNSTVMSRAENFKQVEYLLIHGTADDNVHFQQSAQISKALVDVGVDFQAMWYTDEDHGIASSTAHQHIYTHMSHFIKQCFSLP

Substance: Ile-Pro
- DPP4 inhibitory activity (in words) [1]: high inhibitory activity

Substance: Val-Pro
- DPP4 inhibitory activity (in words) [1]: high inhibitory activity

Substance: Val-Pro-Leu [VPL]
- inhibition ratio (Human recombinant DPP4): 31.0%
